Data reported in the supplement of paper PMC10307832.

Legend:
Test in all cases: relative viability (nuclei count vs DMSO), 5 days (fraction); higher = more cells survive
RERF-LC-KJ = tested on: RERF-LC-KJ
Procedure, shortened: (§1)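 Five library-drug doses in √10 steps were combined with a fixed anchor-drug dose, or a single drug was given alone, by pin tool to lung cancer cell lines in 1536-well plates the day after seeding. Nuclei were stained and counted after 5 days. Relative viability is the nuclei count in treated wells over that in vehicle wells, taken as the median of duplicate plates.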

HCC-827 = tested on: HCC-827
Procedure, shortened: as §1

EKVX = tested on: EKVX
Procedure, shortened: as §1

LU99A = tested on: LU99A
Procedure, shortened: as §1

NCI-H2126 = tested on: NCI-H2126
Procedure, shortened: as §1

LCLC-103H = tested on: LCLC-103H
Procedure, shortened: as §1

SW 1573 = tested on: SW 1573
Procedure, shortened: as §1

ChaGo-K-1 = tested on: ChaGo-K-1
Procedure, shortened: as §1

LK-2 = tested on: LK-2
Procedure, shortened: as §1

NCI-H1666 = tested on: NCI-H1666
Procedure, shortened: as §1

NCI-H1975 = tested on: NCI-H1975
Procedure, shortened: as §1

SW 900 = tested on: SW 900
Procedure, shortened: as §1

PC-14 = tested on: PC-14
Procedure, shortened: as §1

NCI-H2405 = tested on: NCI-H2405
Procedure, shortened: as §1

EMC-BAC-2 = tested on: EMC-BAC-2
Procedure, shortened: as §1

EPLC-272H = tested on: EPLC-272H
Procedure, shortened: as §1

SK-LU-1 = tested on: SK-LU-1
Procedure, shortened: as §1

HCC-78 = tested on: HCC-78
Procedure, shortened: as §1

NCI-H23 = tested on: NCI-H23
Procedure, shortened: as §1

NCI-H322M = tested on: NCI-H322M
Procedure, shortened: as §1

NCI-H2342 = tested on: NCI-H2342
Procedure, shortened: as §1

Compound: CC(=O)O[C@@]12CO[C@@H]1C[C@H](O)[C@@]1(C)C(=O)[C@H](O)C3=C(C)[C@@H](OC(=O)[C@H](O)[C@@H](NC(=O)OC(C)(C)C)c4ccccc4)C[C@@](O)([C@@H](OC(=O)c4ccccc4)[C@H]21)C3(C)C [Docetaxel] + O=C(c1cc(Cc2n[nH]c(=O)c3ccccc23)ccc1F)N1CCN(C(=O)C2CC2)CC1 [Olaparib] (partner 8 µM)
- relative viability (RERF-LC-KJ; first compound 0.0002 µM): 0.793
- relative viability (RERF-LC-KJ; first compound 0.000632 µM): 0.608
- relative viability (RERF-LC-KJ; first compound 0.002 µM): 0.281
- relative viability (RERF-LC-KJ; first compound 0.02 µM): 0.172
- relative viability (HCC-827; first compound 0.0002 µM): 0.626
- relative viability (HCC-827; first compound 0.000632 µM): 0.662
- relative viability (HCC-827; first compound 0.002 µM): 0.329
- relative viability (HCC-827; first compound 0.006325 µM): 0.287
- relative viability (HCC-827; first compound 0.02 µM): 0.23
- relative viability (EKVX; first compound 0.0002 µM): 0.839
- relative viability (EKVX; first compound 0.000632 µM): 0.557
- relative viability (EKVX; first compound 0.002 µM): 0.387
- relative viability (EKVX; first compound 0.006325 µM): 0.316
- relative viability (EKVX; first compound 0.02 µM): 0.167
- relative viability (LU99A; first compound 0.0002 µM): 0.259
- relative viability (LU99A; first compound 0.000632 µM): 0.201
- relative viability (LU99A; first compound 0.002 µM): 0.209
- relative viability (LU99A; first compound 0.006325 µM): 0.23
- relative viability (LU99A; first compound 0.02 µM): 0.163
- relative viability (NCI-H2126; first compound 0.0002 µM): 0.887
- relative viability (NCI-H2126; first compound 0.000632 µM): 0.861
- relative viability (NCI-H2126; first compound 0.002 µM): 0.615
- relative viability (NCI-H2126; first compound 0.006325 µM): 0.348
- relative viability (LCLC-103H; first compound 0.0002 µM): 0.744
- relative viability (LCLC-103H; first compound 0.000632 µM): 0.803
- relative viability (LCLC-103H; first compound 0.002 µM): 0.748
- relative viability (LCLC-103H; first compound 0.006325 µM): 0.643
- relative viability (LCLC-103H; first compound 0.02 µM): 0.481
- relative viability (SW 1573; first compound 0.0002 µM): 0.304
- relative viability (SW 1573; first compound 0.000632 µM): 0.223
- relative viability (SW 1573; first compound 0.002 µM): 0.199
- relative viability (SW 1573; first compound 0.006325 µM): 0.162
- relative viability (SW 1573; first compound 0.02 µM): 0.119
- relative viability (ChaGo-K-1; first compound 0.0002 µM): 0.384
- relative viability (ChaGo-K-1; first compound 0.000632 µM): 0.335
- relative viability (ChaGo-K-1; first compound 0.002 µM): 0.285
- relative viability (ChaGo-K-1; first compound 0.006325 µM): 0.3
- relative viability (ChaGo-K-1; first compound 0.02 µM): 0.181
- relative viability (LK-2; first compound 0.0002 µM): 0.599
- relative viability (LK-2; first compound 0.000632 µM): 0.249
- relative viability (LK-2; first compound 0.002 µM): 0.156
- relative viability (LK-2; first compound 0.006325 µM): 0.118
- relative viability (LK-2; first compound 0.02 µM): 0.0792
- relative viability (NCI-H1666; first compound 0.0002 µM): 0.786
- relative viability (NCI-H1666; first compound 0.000632 µM): 0.673
- relative viability (NCI-H1666; first compound 0.002 µM): 0.721
- relative viability (NCI-H1666; first compound 0.006325 µM): 0.703
- relative viability (NCI-H1666; first compound 0.02 µM): 0.573
- relative viability (NCI-H1975; first compound 0.0002 µM): 0.748
- relative viability (NCI-H1975; first compound 0.000632 µM): 0.448
- relative viability (NCI-H1975; first compound 0.002 µM): 0.239
- relative viability (NCI-H1975; first compound 0.006325 µM): 0.187
- relative viability (NCI-H1975; first compound 0.02 µM): 0.147
- relative viability (SW 900; first compound 0.0002 µM): 0.817
- relative viability (SW 900; first compound 0.000632 µM): 0.353
- relative viability (SW 900; first compound 0.002 µM): 0.281
- relative viability (SW 900; first compound 0.006325 µM): 0.266
- relative viability (SW 900; first compound 0.02 µM): 0.172
- relative viability (PC-14; first compound 0.0002 µM): 0.276
- relative viability (PC-14; first compound 0.000632 µM): 0.164
- relative viability (PC-14; first compound 0.002 µM): 0.0642
- relative viability (PC-14; first compound 0.006325 µM): 0.0438
- relative viability (PC-14; first compound 0.02 µM): 0.0274
- relative viability (NCI-H2405; first compound 0.0002 µM): 0.875
- relative viability (NCI-H2405; first compound 0.000632 µM): 0.712
- relative viability (NCI-H2405; first compound 0.002 µM): 0.557
- relative viability (NCI-H2405; first compound 0.006325 µM): 0.419
- relative viability (NCI-H2405; first compound 0.02 µM): 0.329
- relative viability (EMC-BAC-2; first compound 0.0002 µM): 0.492
- relative viability (EMC-BAC-2; first compound 0.000632 µM): 0.47
- relative viability (EMC-BAC-2; first compound 0.002 µM): 0.364
- relative viability (EMC-BAC-2; first compound 0.006325 µM): 0.318
- relative viability (EMC-BAC-2; first compound 0.02 µM): 0.237
- relative viability (EPLC-272H; first compound 0.0002 µM): 0.527
- relative viability (EPLC-272H; first compound 0.000632 µM): 0.339
- relative viability (EPLC-272H; first compound 0.002 µM): 0.0991
- relative viability (EPLC-272H; first compound 0.006325 µM): 0.0687
- relative viability (EPLC-272H; first compound 0.02 µM): 0.0452
- relative viability (SK-LU-1; first compound 0.0002 µM): 0.479
- relative viability (SK-LU-1; first compound 0.000632 µM): 0.349
- relative viability (SK-LU-1; first compound 0.002 µM): 0.315
- relative viability (SK-LU-1; first compound 0.006325 µM): 0.256
- relative viability (SK-LU-1; first compound 0.02 µM): 0.167
- relative viability (HCC-78; first compound 0.0002 µM): 0.859
- relative viability (HCC-78; first compound 0.000632 µM): 0.777
- relative viability (HCC-78; first compound 0.002 µM): 0.41
- relative viability (HCC-78; first compound 0.006325 µM): 0.329
- relative viability (HCC-78; first compound 0.02 µM): 0.338
- relative viability (NCI-H23; first compound 0.0002 µM): 0.366
- relative viability (NCI-H23; first compound 0.002 µM): 0.221
- relative viability (NCI-H23; first compound 0.006325 µM): 0.164
- relative viability (NCI-H23; first compound 0.02 µM): 0.105
- relative viability (NCI-H322M; first compound 0.0002 µM): 0.777
- relative viability (NCI-H322M; first compound 0.000632 µM): 0.797
- relative viability (NCI-H322M; first compound 0.002 µM): 0.721
- relative viability (NCI-H322M; first compound 0.006325 µM): 0.679
- relative viability (NCI-H322M; first compound 0.02 µM): 0.525
- relative viability (NCI-H2342; first compound 0.0002 µM): 0.525
- relative viability (NCI-H2342; first compound 0.000632 µM): 0.456
- relative viability (NCI-H2342; first compound 0.002 µM): 0.312
- relative viability (NCI-H2342; first compound 0.006325 µM): 0.348
- relative viability (NCI-H2342; first compound 0.02 µM): 0.301
